The text below walks through data of patent publication US7803558B2, “Modulation of aqueous humor outflow by targeting vascular-endothelial-cadherin in Schlemm's canal cells” (The Arizona Board of Regents on behalf of the University of …, priority 2003, dated 2010).

Read-outs that look alike come from different tables or passages of the source.

For test [1], the system named is SC cell monolayers (cell margins). On the procedure: (§1) SC Cells: Human cadaveric eye tissue was obtained from Donor Network of Arizona, San Diego Lions Eye Bank or North Carolina Lions Eye Bank within 48 hours of death for whole eyes stored in moist chambers, and within 96 hours for non-transplantable corneal anterior segments stored in Optisol (Chiron Vision, Clairmont, Calif.). Human SC cells were isolated from the cadaveric eye tissue using gelatin-coated cannulas, as described previously (Stamer W D, et al Invest Opthalmol Vis Sci 1998; 39:1804-1812) or by differential dissection (O'Brien E, Invest. Opthalmol. Vis. Sci. 2000; 41:3842-3849). Cells used in perfusion studies were isolated by both methods while only cells isolated by differential dissection were used in morphology experiments. Cells were grown and maintained in Dulbecco's Modified Eagle Medium (DMEM) and maintained in humidified air containing 5% CO2 at 37° C., as described previously (Stamer W D, et al Invest Opthalmol Vis Sci 1998; 39:1804-1812). Human SC cells were seeded at 100,000 cells/cm^2onto 1-cm^2 Snapwell Filters (Snapwell; Costar, Acton, Mass.) with 0.4-μm pore diameter in 10% FBS/DMEM. Primary cultures of eight SC cell strains were isolated from eight different cadaveric eyes without a history of glaucoma and used in the present study (SC3, SC6, SC10, SC11, SC41, SC42, SC 57 and SC68).

For test [2], the system named is human Schlemm's canal (SC) cell monolayers. Here is the method:
as §1
(§2) Transendothelial electrical resistance (TEER) of cell monolayers cultured on Snapwell filters was measured using a TEER measurement chamber (ENDOHM-24; World Precision Instruments) in conjunction with an epithelial voltohmmeter (EVOM; World Precision Instruments). […] Pressure in the upstream compartment was generated by an elevated reservoir of HEPES-DMEM, with pressure recorded using a pressure transducer (AH 60-3002; Harvard Apparatus, Holliston, Mass.), while the downstream compartment was vented to atmospheric pressure. The rate of fluid flow through the chamber was calculated from the weight change per unit time of the reservoir measured using an isometric transducer (AH 60-2994; Harvard Apparatus). Pressure and weight data were recorded simultaneously at 30 times/sec onto hard drive of computer using a Data Acquisition System (MP100WSW; Biopac Systems, Inc., Santa Barbara, Calif.).
(§3) Once stable TEER was achieved, a valve between the reservoir and chamber was opened to expose the upstream chamber to pressure. TEER, flow, and pressure measurements were recorded for 20 minutes to establish baseline values. […] The medium in the upstream chamber was then exchanged with […] HEPES-DMEM at a rate of 2.5 ml/min, and a second 10-minute baseline period was measured.

In test [3] the test system is MDCK cell monolayers. On the procedure:
(§4) MDCK Cells: Madin-Darby Canine Kidney cells (MDCK), were used as a control to characterize perfusion system and for comparisons to SC monolayers. […] MDCK cells thus served as a positive control for comparisons with SC cells in subsequent experiments. MDCK Cells used in the present study were a gift from Dr. Ronald Lynch (University of Arizona) and were used between passages 14-16. Cells were grown in DMEM and maintained in humidified air containing 5% CO2 at 37° C. for at least three weeks after reaching confluence before experimentation.
Transendothelial electrical resistance (TEER) of cell monolayers cultured on Snapwell filters was measured using a TEER measurement chamber (ENDOHM-24; World Precision Instruments) in conjunction with an epithelial voltohmmeter (EVOM; World Precision Instruments). Following three rinses with prewarmed 20 mM HEPES (Sigma, St. Louis, Mo.) buffered DMEM (serum-free, pH 7.4; HEPES-DMEM), filters were carefully transferred to the TEER measurement chamber filled with HEPES-DMEM. […] The Snapwell filters containing the cell monolayers were then carefully placed into an Ussing-type chamber (Ussing system CHM5; World Precision Instruments, Sarasota, Fla.) filled with HEPES-DMEM and maintained at 37° C. in an air incubator for 15 minutes prior to pressure application. Filters were oriented such that the apical surface of cell monolayers faced the upstream chamber. Flow through cell monolayers was a function of the pressure gradient between the upstream and downstream compartments of the chamber. Pressure in the upstream compartment was generated by an elevated reservoir of HEPES-DMEM, with pressure recorded using a pressure transducer (AH 60-3002; Harvard Apparatus, Holliston, Mass.), while the downstream compartment was vented to atmospheric pressure. The rate of fluid flow through the chamber was calculated from the weight change per unit time of the reservoir measured using an isometric transducer (AH 60-2994; Harvard Apparatus). Pressure and weight data were recorded simultaneously at 30 times/sec onto hard drive of computer using a Data Acquisition System (MP100WSW; Biopac Systems, Inc., Santa Barbara, Calif.).
as §3
Hydraulic conductivity was measured continuously and TEER measurements were then taken every five minutes for the duration of the trial.

In test [4] the test system is human Schlemm's canal (SC) cell monolayers. On the procedure:
as §1
as §2, with “Instruments). Following three rinses with prewarmed 20 mM HEPES (Sigma, St. Louis, Mo.) buffered DMEM (serum-free, pH 7.4; HEPES-DMEM), filters were carefully transferred to the TEER measurement chamber filled with HEPES-DMEM.” for “Instruments).”
Once stable TEER was achieved, a valve between the reservoir and chamber was opened to expose the upstream chamber to pressure. TEER, flow, and pressure measurements were recorded for 20 minutes to establish baseline values.
This is another data set of the same source.

Test [5] has as its system MDCK cell monolayers (cell borders). Conditions: by 60 seconds after Na2EDTA, data not shown. On the procedure:
as §4

The subject of test [6] is MDCK cell monolayers. Here is the method:
as §4
as §2, with “Instruments). Following three rinses with prewarmed 20 mM HEPES (Sigma, St. Louis, Mo.) buffered DMEM (serum-free, pH 7.4; HEPES-DMEM), filters were carefully transferred to the TEER measurement chamber filled with HEPES-DMEM.” for “Instruments).”
as §3
This is another data set of the same source.

Consider `O=C([O-])CN(CCN(CC(=O)[O-])CC(=O)O)CC(=O)O.[Na+].[Na+]` [Na2EDTA], for which the “time required for cell margins to return to original position / cell-cell contacts to return visually after replacement of normal medium” value in test [1] (10 mM Na2EDTA for 5 minutes, then normal medium, data not shown) is reported as “about 30 minutes”. Moreover, the “retraction of cell margins from each other” value is reported as “about 2 μm” in test [1] (60 seconds after addition of 10 mM Na2EDTA) and “about 3 μm” in test [1] (90 seconds after addition of 10 mM Na2EDTA). In test [2] (SC monolayers, 0.5-2 mM Na2EDTA, n=6), the “impact of lower concentrations on HC or TEER” value is “not to impact significantly”. For the same compound, the “minimum Na2EDTA needed to effect both hydraulic conductivity and TEER” value in test [2] (SC monolayers, titration experiments, time course of the experiments, n=13-15, data not shown) is recorded as 5 mM. The “percent change in HC relative to baseline following Na2EDTA treatment versus percent change between the two baseline measurements” value was “significantly greater” in test [2] (SC, paired t-test, p<0.05) and “significantly greater” in the test with MDCK cell monolayers [3] (MDCK, paired t-test, p<0.05). The “percent change in HC relative to baseline following post-Na2EDTA rinse versus percent change between the two baseline measurements” value in test [2] (SC, paired t-test, p<0.05) was “significantly greater”; in the test with MDCK cell monolayers [3] (MDCK, paired t-test), “not”. In addition, the “recovery of TEER and hydraulic conductivity shortly after washout of Na2EDTA” value with MDCK cell monolayers [3] (MDCK cell monolayers, perfusion experiments) was “partial recovery”. Also, the “minimum Na2EDTA required to effect both hydraulic conductivity and TEER” value in the test with MDCK cell monolayers [3] (MDCK cell monolayers, titration experiments, time course of the experiments, n=13-15, data not shown) was determined as 25 mM. The “time required for functional return after washout of Na2EDTA” value in test [4] (SC monolayers, functionally via TEER measurements) worked out at 2 h. The “change in TEER decrease relative to 30-minute baseline in presence of pressure (paired t-test)” value in test [4] (SC, 5 mM Na2EDTA) was “no significant change”. For the same compound, the “average rate of TEER decrease after Na2EDTA treatment” value is 0.34 (+/−0.26 SEM) Ωcm^2/min in test [4] (SC, 5 mM Na2EDTA for 5 min, 4-6 mm Hg, n=5, +/- SEM) and 1.9 (+/−0.12 SEM) Ωcm^2/min in the test on MDCK cell monolayers [6] (25 mM Na2EDTA for 5 min, 14-16 mm Hg, n=4, +/- SEM). Besides, the “average rate of change of TEER following rinse with normal medium” value in test [4] (SC, after 5 mM Na2EDTA for 5 min) is recorded as “not significantly different from pre-Na2EDTA rates”; with MDCK cell monolayers [6] (after 25 mM Na2EDTA for 5 min), “not significantly different from pre-Na2EDTA rates”. In test [5], the “effect on cell borders” value was “retracted”. Besides, the “change in TEER relative to baseline in presence of pressure (paired t-test)” value in the test with MDCK cell monolayers [6] (25 mM Na2EDTA, p=0.06) is listed as “approached significance”.
